Data published in BindingDB's records for PubMed 35063895 (Tokyo Medical and Dental University, 2022).
“And” between values parts separate entries of the source, which are not always exact repeats. Identical values can stand only once.

Experiment: CD4 mimetic activity at gp120 in HIV-1 KP-5mvcR infected in human TZM-bl cells assessed as inhibition of viral entry by measuring reduction in RLU by single round assay
With CC1(C)CC(NC(=O)C(=O)Nc2ccc(F)nc2)CC(C)(C)N1 the IC50 was 5.1 µM. For N=C(N)NCCCCC(=O)NCCN1CCC(NC(=O)C(=O)Nc2ccc(Cl)cc2)CC12CCCCC2 (stereo not drawn), the IC50 was 0.29 µM and 1.5 µM. Compound COCCOCCOCCOCCOCCOCCOCCOCCOCCOCCOCCOCCNC(=O)CCC(=O)N[C@@H](CCCNC(=N)N)C(=O)NCCN1CCC(NC(=O)C(=O)Nc2ccc(Cl)cc2)CC12CCCCC2 (stereo partly drawn) has an IC50 of 6.7 µM. For COCCOCCOCCOCCOCCOCCOCCOCCOCCOCCOCCOCCNC(=O)CCC(=O)N[C@@H](CCCNC(=N)N)C(=O)NCCN1CCC(NC(=O)C(=O)Nc2ccc(F)nc2)CC12CCCCC2 (stereo partly drawn), the IC50 was > 100 µM. In the case of N=C(N)NCCCCC(=O)NCCN1CCC(NC(=O)C(=O)Nc2cncc(F)c2)CC12CCCCC2 (stereo not drawn), the IC50 is reported as > 100 µM. In the case of N=C(N)NCCCCC(=O)NCCN1CCC(NC(=O)CNc2ccc(Cl)cn2)CC1, the IC50 is reported as > 100 µM. In the case of N=C(N)NCCCCC(=O)NCCN1CCC(NC(=O)C(=O)Nc2ccc(Cl)cn2)CC1, the IC50 is reported as > 100 µM. With CC1(C)CC(NC(=O)C(=O)Nc2ccc(Cl)cc2)CC(C)(C)N1 [N-(4-chlorophenyl)-N'-(2,2,6,6-tetramethylpiperidin-4-yl)-oxalamide] the IC50 was 0.27 µM.
